Laboratory results taken from patent US10857170B1, “Molecules, compositions and methods for modulation of SIRT6” (SirTLab Corporation, priority 2015, dated 2020).

Biological target: T1, Human recombinant SIRT6 (Homo sapiens, UniProt Q8N6T7)
T1 construct: six-histidine (His6); made in house; host or cells: Escherichia coli BL21
Test: SIRT6 enzymatic activity assay (fluorogenic de-myristoylation of histone H3 peptide-AMC, trypsin-coupled)
Format: biochemical
Details: Table 2; compound 20 uM; percentage of signal increase relative to control wells
Procedure: Human recombinant SIRT6 (sequence identifier: CAG33481.1; GI:4814651) was expressed in large scale in Escherichia coli strain BL21 as a six-histidine-tagged protein, after transformation of the expression plasmid pET28-SIRT6. The SIRT6 enzyme was purified from the bacteria culture broth in a two-step strategy. The first purification step was carried out by cation exchange chromatography on a HiTrap CM-Sepharose column (GE Healthcare) using an FPLC system. The second purification step was performed by immobilized metal ion affinity chromatography (IMAC) using a cobalt affinity column (Clontech).
The enzymatic activity assay is carried out in 96 or 384-well microplates using the purified recombinant SIRT6 and a fluorophore-labeled peptide substrate: 7-amino-4-methylcoumarin (AMC) that is quenched through conjugation to the C-terminal end of a Lysin-myristoylated histone H3 peptide. The activity assay procedure requires two steps, both performed in the same microplate. In the first step, the substrate is incubated with the purified SIRT6 protein along with the co-substrate nicotinamide adenine dinucleotide (NAD+). Upon de-myristoylation, the liberated ε-amino group of the lysine becomes a trypsin substrate. Treatment with trypsin in the second step releases the fluorophore resulting in an increase in fluorescence. Fluorescence intensity is measured using a fluorescent plate reader (excitation and emission at 370 nm and 450 nm, respectively). The fluorescence signal is directly proportional to SIRT6 enzymatic activity.
In the primary screening, compounds from a library (ChemDiv Inc.) were tested at a single concentration of 20 micromolar for their potential to modulate SIRT6 enzymatic activity. The assay was carried out in 384-well black well plates and all liquid handling was done using a robotic liquid handler. Purified recombinant SIRT6 (1 micromolar) was pre-incubated with each compound (or DMSO in control wells) for 15 minutes at room temperature. The first stage of the assay was initiated by adding a ‘substrate solution’ containing the myristoylated histone H3 peptide and NAD+(for final concentrations of 25 micromolar and 20 micromolar, respectively). After one hour incubation at 37° C., a Trypsin solution (6 mg/mL) was added for 30 minutes at room temperature. Fluorescence intensity was measured using a fluorescent plate reader (Tecan) with excitation at 370 nm and emission at 450 nm. The effect of each tested compound was evaluated by the change in the fluorescence intensity compared to control wells. […] To validate the primary screening results, each of the primary “hits” was re-tested, first at concentration of 20 micromolar in duplicates and later at a serial dilution ranging from 100 to 0.2 micromolar in triplicates.

T1 sequence (Q8N6T7 whole entry): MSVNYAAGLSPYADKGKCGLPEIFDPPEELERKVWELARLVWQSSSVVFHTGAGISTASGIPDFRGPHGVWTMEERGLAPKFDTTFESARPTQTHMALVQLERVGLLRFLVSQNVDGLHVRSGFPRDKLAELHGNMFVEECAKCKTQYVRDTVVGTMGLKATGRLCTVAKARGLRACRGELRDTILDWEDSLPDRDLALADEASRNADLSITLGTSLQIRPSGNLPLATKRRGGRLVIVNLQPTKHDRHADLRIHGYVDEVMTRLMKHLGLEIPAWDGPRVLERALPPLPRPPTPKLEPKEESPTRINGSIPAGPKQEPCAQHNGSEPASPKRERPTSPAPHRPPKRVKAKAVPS

| Compound | % activity 20 uM [%] |
| --- | --- |
| CC[C@H]1O[C@@H](Cc2ccc3c(c2C)CC(=O)C(C)=C3C)[C@H](C)[C@@H](O)[C@H]1C [compound 26] | 21 |
| O=C(NCc1cccc(Cl)c1)c1noc2c1CSc1ccccc1-2 [compound 27] | 59 |
| C=C1Cc2ccc(C)cc2C2=C1C(c1ccc(F)cc1)=C(NCCOC)C2 [compound 28] | 134 |
| C=C1Oc2ccc(C)cc2-c2oc(NCCOC)c(-c3ccc(OCC)cc3)c21 [compound 29] | 82 |
| COCCNc1oc2c(c1-c1ccc(C)cc1)c(=O)oc1c(C)cccc12 [compound 30] | 149 |
| Cc1ccc(NC(=O)c2nnc(-c3ccc(NC(=O)c4cccs4)cc3)s2)cc1 [compound 31] | 29 |
| C=C(CN1C(=C)C(c2nc(-c3ccccc3)no2)=C(C)C=C1C)NCCc1ccc(CC)c(CC)c1 [compound 32] | 101 |
| C=C(CN1C(=C)C(c2nc(-c3ccccc3)no2)=C(C)C=C1C)NC1CCCCC1 [compound 33] | 53 |
| C=C(Oc1ccc2cnccc2c1)C1=C(N)c2ccccc2C1 [compound 35] | 154 |
| C=C(Nc1ccc(CC)c(Cl)c1)c1cc(N)cc2cn[nH]c12 [compound 36] | 45 |
| C=C1Cc2c(cccc2CC)C=C1C1=CCC(NC(=O)CCC(=O)NCCCN2CCC(C)CC2)=N1 [compound 37] | 42 |
| C=S(=O)(C1=CC=C(c2ccc(N3CCCCC3)nn2)C1)N1CCCC(C(=O)OCC)C1 (stereo not drawn) [compound 38] | 52 |
| C=C(Nc1ccc(CCC)cc1)C1=C(C)c2c(nc(C)nc2N(C)c2ccc(C(C)C)cc2)C1 [compound 39] | 32 |
| C=C(CC)Nc1ccc(-c2cc(C(=O)NCCCN3CCCCCC3)c3ccccc3n2)cc1 [compound 40] | 62 |
| CCC(=O)Nc1ccc(-c2cc(C(=O)NCCCN3CCCCC3C)c3ccccc3n2)cc1 (stereo not drawn) [compound 41] | 40 |
| C=C(CC)Nc1ccc(-c2cc(C(=O)NCCCN3CCCC(C)C3)c3ccccc3n2)cc1 (stereo not drawn) [compound 42] | 61 |
| C=C(NCCN1CCN(C)CC1)c1cc(-c2ccc(NC(C)=O)cc2)nc2ccc(C)cc12 [compound 43] | 96 |
| C=C(c1ccc(-c2nc3ccccc3n(CC(C)C)c2=O)cc1)N1CCN(c2ccccc2)CC1 [compound 46] | 51 |
| C=C(NCCC)c1ccc(-c2ccc(N3CCCCC3)nc2)cc1 [compound 47] | 63 |
| C=C(c1ccc(-c2ccc(N3CCCCC3)nc2)cc1)N(C)C [compound 48] | 40 |
| O=C(c1ccc(-c2ccc(N3CCCCC3)nc2)cc1)N1CCCC1 [compound 49] | 93 |
| O=C(Nc1ccc2nncn2c1)c1cccc(Cl)c1 [compound 50] | 30 |
| CC(C)(C)c1ccc(C(=O)Nc2ccc3nnc(C4CCC4)n3c2)cc1 [compound 51] | 23 |
| O=C(Nc1ccc2nnc(C3CCC3)n2c1)C1CC1 [compound 52] | 69 |
| Cc1nc(Nc2ccc(F)cc2)sc1C(=O)Nc1ccc(F)cc1F [compound 53] | 36 |
| Cc1ccc(Nc2nc(C)c(C(=O)Nc3cccc(C(C)C)c3)s2)cc1 [compound 54] | 31 |
| COc1cc(NC(=O)c2csc(-c3cn(C)c4ncccc34)n2)cc(OC)c1 [compound 55] | 31 |

Same assay, conditions: Table 2; compound 100 uM; percentage of signal increase relative to control wells

| Compound | % activity 100 uM [%] |
| --- | --- |
| CC[C@H]1O[C@@H](Cc2ccc3c(c2C)CC(=O)C(C)=C3C)[C@H](C)[C@@H](O)[C@H]1C [compound 26] | 56 |
| O=C(NCc1cccc(Cl)c1)c1noc2c1CSc1ccccc1-2 [compound 27] | 137 |
| C=C1Cc2ccc(C)cc2C2=C1C(c1ccc(F)cc1)=C(NCCOC)C2 [compound 28] | 246 |
| C=C1Oc2ccc(C)cc2-c2oc(NCCOC)c(-c3ccc(OCC)cc3)c21 [compound 29] | 226 |
| COCCNc1oc2c(c1-c1ccc(C)cc1)c(=O)oc1c(C)cccc12 [compound 30] | 111 |
| Cc1ccc(NC(=O)c2nnc(-c3ccc(NC(=O)c4cccs4)cc3)s2)cc1 [compound 31] | 16 |
| C=C(CN1C(=C)C(c2nc(-c3ccccc3)no2)=C(C)C=C1C)NCCc1ccc(CC)c(CC)c1 [compound 32] | 73 |
| C=C(CN1C(=C)C(c2nc(-c3ccccc3)no2)=C(C)C=C1C)NC1CCCCC1 [compound 33] | 221 |
| C=C(Oc1ccc2cnccc2c1)C1=C(N)c2ccccc2C1 [compound 35] | 324 |
| C=C(Nc1ccc(CC)c(Cl)c1)c1cc(N)cc2cn[nH]c12 [compound 36] | 56 |
| C=C1Cc2c(cccc2CC)C=C1C1=CCC(NC(=O)CCC(=O)NCCCN2CCC(C)CC2)=N1 [compound 37] | 35 |
| C=S(=O)(C1=CC=C(c2ccc(N3CCCCC3)nn2)C1)N1CCCC(C(=O)OCC)C1 (stereo not drawn) [compound 38] | 52 |
| C=C(Nc1ccc(CCC)cc1)C1=C(C)c2c(nc(C)nc2N(C)c2ccc(C(C)C)cc2)C1 [compound 39] | 54 |
| C=C(CC)Nc1ccc(-c2cc(C(=O)NCCCN3CCCCCC3)c3ccccc3n2)cc1 [compound 40] | 92 |
| CCC(=O)Nc1ccc(-c2cc(C(=O)NCCCN3CCCCC3C)c3ccccc3n2)cc1 (stereo not drawn) [compound 41] | 110 |
| C=C(CC)Nc1ccc(-c2cc(C(=O)NCCCN3CCCC(C)C3)c3ccccc3n2)cc1 (stereo not drawn) [compound 42] | 87 |
| C=C(NCCN1CCN(C)CC1)c1cc(-c2ccc(NC(C)=O)cc2)nc2ccc(C)cc12 [compound 43] | 119 |
| C=C(c1ccc(-c2nc3ccccc3n(CC(C)C)c2=O)cc1)N1CCN(c2ccccc2)CC1 [compound 46] | 56 |
| C=C(NCCC)c1ccc(-c2ccc(N3CCCCC3)nc2)cc1 [compound 47] | 50 |
| C=C(c1ccc(-c2ccc(N3CCCCC3)nc2)cc1)N(C)C [compound 48] | 54 |
| O=C(c1ccc(-c2ccc(N3CCCCC3)nc2)cc1)N1CCCC1 [compound 49] | 75 |
| O=C(Nc1ccc2nncn2c1)c1cccc(Cl)c1 [compound 50] | 51 |
| CC(C)(C)c1ccc(C(=O)Nc2ccc3nnc(C4CCC4)n3c2)cc1 [compound 51] | 87 |
| O=C(Nc1ccc2nnc(C3CCC3)n2c1)C1CC1 [compound 52] | 142 |
| Cc1nc(Nc2ccc(F)cc2)sc1C(=O)Nc1ccc(F)cc1F [compound 53] | 22 |
| Cc1ccc(Nc2nc(C)c(C(=O)Nc3cccc(C(C)C)c3)s2)cc1 [compound 54] | 11 |
| COc1cc(NC(=O)c2csc(-c3cn(C)c4ncccc34)n2)cc(OC)c1 [compound 55] | 37 |
